Measured values from patent US7183299B2 (priority 2001, dated 2007).

Assays:
[1] = system: downy mildew (Plasmopara viticola) on grape; conditions: in vivo
late blight on tomato = type: in vivo, Plasmopara viticola; conditions: tomato (Hofuku), therapeutic effect, sprayed after inoculation, active ingredient 100 ppm, disease severity 7 days after inoculation

CCOCC(=O)Nc1nc(CON=C(c2ccccc2)c2nnnn2C)cs1 [(6)-2]
Control value (%) [1]: 70%
Control value (%) (late blight on tomato): 80%

CSCCC(=O)Nc1nc(CON=C(c2ccccc2)c2nnnn2C)cs1 [(6)-6]
Control value (%) [1]: 70%
Control value (%) (late blight on tomato): 80%

C=C(C)C(=O)Nc1nc(CON=C(c2ccccc2)c2nnnn2C)cs1 [(6)-7]
Control value (%) [1]: 100%
Control value (%) (late blight on tomato): 100%

CCCOCCC(=O)Nc1nc(CON=C(c2ccccc2)c2nnnn2C)cs1 [(6)-15]
Control value (%) [1]: 70%
Control value (%) (late blight on tomato): 90%

CCCC(=O)Nc1cccc(CON=C(c2ccc(Cl)cc2)c2nnnn2C)n1 [(7)-1]
Control value (%) [1]: 70%
Control value (%) (late blight on tomato): 80%

Cn1nnnc1C(=NOCc1cccc(NC(=O)C2CC2)n1)c1ccc(Cl)cc1 [(7)-3]
Control value (%) [1]: 80%
Control value (%) (late blight on tomato): 80%

COc1ccc(C(=NOCc2cccc(NC(=O)C3CC3)n2)c2nnnn2C)cc1 [(7)-11]
Control value (%) [1]: 70%
Control value (%) (late blight on tomato): 80%

CCCCCC(=O)Nc1cccc(CON=C(c2ccc(C)cc2)c2nnnn2C)n1 [(7)-12]
Control value (%) [1]: 100%
Control value (%) (late blight on tomato): 100%

CC(C)C(=O)Nc1nc(CON=C(c2ccc(Cl)cc2)c2nnnn2C)cs1 [(8)-2]
Control value (%) [1]: 70%
Control value (%) (late blight on tomato): 90%

Cn1nnnc1C(=NOCc1csc(NC(=O)C(C)(C)C)n1)c1cccc(F)c1 [(8)-7]
Control value (%) [1]: 70%
Control value (%) (late blight on tomato): 80%

COc1ccc(C(=NOCc2csc(NC(=O)C(C)(C)C)n2)c2nnnn2C)cc1 [(8)-10]
Control value (%) [1]: 70%
Control value (%) (late blight on tomato): 90%

Cn1nnnc1C(=NOCc1csc(NC(=O)C(C)(C)C)n1)c1ccc(Cl)cc1 [(8)-17]
Control value (%) [1]: 90%
Control value (%) (late blight on tomato): 80%

Cn1nnnc1C(=NOCc1cccc(NC(=O)OC(C)(C)C)n1)c1cccc(F)c1 [(9)-1]
Control value (%) [1]: 100%
Control value (%) (late blight on tomato): 100%

CC(C)OC(=O)Nc1cccc(CON=C(c2ccc(F)cc2)c2nnnn2C)n1 [(9)-2]
Control value (%) [1]: 70%
Control value (%) (late blight on tomato): 80%

Cn1nnnc1C(=NOCc1cccc(NC(=O)OC(C)(C)C)n1)c1ccc(F)cc1 [(9)-3]
Control value (%) [1]: 70%
Control value (%) (late blight on tomato): 90%

Cc1ccc(C(=NOCc2cccc(NC(=O)OC(C)(C)C)n2)c2nnnn2C)cc1 [(9)-4]
Control value (%) [1]: 100%
Control value (%) (late blight on tomato): 100%

CCCCCOC(=O)Nc1cccc(CON=C(c2ccc(C)cc2)c2nnnn2C)n1 [(9)-5]
Control value (%) [1]: 100%
Control value (%) (late blight on tomato): 100%

CCCOC(=O)Nc1cccc(CON=C(c2cccc(F)c2)c2nnnn2C)n1 [(9)-6]
Control value (%) [1]: 70%
Control value (%) (late blight on tomato): 100%

CCCCCC(=O)Nc1cccc(CON=C(c2cccc(C)c2)c2nnnn2C)n1 [(9)-7]
Control value (%) [1]: 100%
Control value (%) (late blight on tomato): 100%

CCC(C)(C)OC(=O)Nc1cccc(CON=C(c2ccc(C)cc2)c2nnnn2C)n1 [(9)-9]
Control value (%) [1]: 100%
Control value (%) (late blight on tomato): 100%

CCCCCOC(=O)Nc1cccc(CON=C(c2ccccc2C)c2nnnn2C)n1 [(9)-10]
Control value (%) [1]: 100%
Control value (%) (late blight on tomato): 100%

CCCCOC(=O)Nc1cccc(CON=C(c2ccccc2C)c2nnnn2C)n1 [(9)-11]
Control value (%) [1]: 100%
Control value (%) (late blight on tomato): 100%

CC(=O)Nc1cccc(CON=C(c2ccccc2)n2nnnc2C)n1 [(11)-4]
Control value (%) [1]: 70%
Control value (%) (late blight on tomato): 80%

CCC(=O)Nc1cccc(CON=C(c2ccccc2)n2nnnc2C)n1 [(11)-5]
Control value (%) [1]: 70%
Control value (%) (late blight on tomato): 80%

CCCC(=O)Nc1cccc(CON=C(c2ccccc2)n2nnnc2C)n1 [(11)-6]
Control value (%) [1]: 70%
Control value (%) (late blight on tomato): 80%

Cc1nnnn1C(=NOCc1cccc(NC(=O)C(C)C)n1)c1ccccc1 [(11)-7]
Control value (%) [1]: 100%
Control value (%) (late blight on tomato): 100%

CCCCC(=O)Nc1cccc(CON=C(c2ccccc2)n2nnnc2C)n1 [(11)-8]
Control value (%) [1]: 100%
Control value (%) (late blight on tomato): 100%

Cc1nnnn1C(=NOCc1cccc(NC(=O)C(C)(C)C)n1)c1ccccc1 [(11)-11]
Control value (%) [1]: 70%
Control value (%) (late blight on tomato): 80%

CCCCCC(=O)Nc1cccc(CON=C(c2ccccc2)n2nnnc2C)n1 [(11)-12, (Z)-(5-methyltetrazol-1-yl)phenylmethanoneoxime 0-(6-(hexanoylamino)pyridin-2-yl)methyloxime]
Control value (%) [1]: 100%
Control value (%) (late blight on tomato): 100%

Cc1nnnn1C(=NOCc1cccc(NC(=O)C2CC2)n1)c1ccccc1 [(11)-21]
Control value (%) [1]: 70%
Control value (%) (late blight on tomato): 90%

CCCC(=O)Nc1nc(CON=C(c2ccccc2)n2nnnc2C)cs1 [(12)-6]
Control value (%) [1]: 80%
Control value (%) (late blight on tomato): 100%

Cc1nnnn1C(=NOCc1csc(NC(=O)C(C)C)n1)c1ccccc1 [(12)-7]
Control value (%) [1]: 90%
Control value (%) (late blight on tomato): 100%

CCCCCC(=O)Nc1nc(CON=C(c2ccccc2)n2nnnc2C)cs1 [(12)-12, (Z)-(5-methyltetrazol-1-yl)phenylmethanoneoxime 0-(2-(n-hexanoylamino)thiazol-4-yl)methyloxime]
Control value (%) [1]: 90%
Control value (%) (late blight on tomato): 100%

CCCCCCC(=O)Nc1nc(CON=C(c2ccccc2)n2nnnc2C)cs1 [(12)-18]
Control value (%) [1]: 90%
Control value (%) (late blight on tomato): 100%

CCCCOC(=O)Nc1cccc(CON=C(c2ccccc2)n2nnnc2C)n1 [(13)-5]
Control value (%) [1]: 70%
Control value (%) (late blight on tomato): 90%

Cc1nnnn1C(=NOCc1cccc(NC(=O)OC(C)(C)C)n1)c1ccccc1 [(13)-8]
Control value (%) [1]: 90%
Control value (%) (late blight on tomato): 100%

CCCCCOC(=O)Nc1cccc(CON=C(c2ccccc2)n2nnnc2C)n1 [(13)-9]
Control value (%) [1]: 100%
Control value (%) (late blight on tomato): 100%

CCCCCCOC(=O)Nc1cccc(CON=C(c2ccccc2)n2nnnc2C)n1 [(13)-15]
Control value (%) [1]: 80%
Control value (%) (late blight on tomato): 90%

Cc1nnnn1C(=NOCc1cccc(NC(=O)OC2CCCC2)n1)c1ccccc1 [(13)-21]
Control value (%) [1]: 80%
Control value (%) (late blight on tomato): 100%

Cc1nnnn1C(=NOCc1cccc(NC(=O)OC2CCCCC2)n1)c1ccccc1 [(13)-22]
Control value (%) [1]: 100%
Control value (%) (late blight on tomato): 100%

CCCCOC(=O)Nc1nc(CON=C(c2ccccc2)n2nnnc2C)cs1 [(14)-5]
Control value (%) [1]: 70%
Control value (%) (late blight on tomato): 80%

Cc1nnnn1C(=NOCc1csc(NC(=O)c2ccccc2)n1)c1ccccc1 [(16)-3]
Control value (%) [1]: 70%
Control value (%) (late blight on tomato): 80%

CCCC(=O)Nc1cccc(CON=C(c2ccc(Cl)cc2)n2nnnc2C)n1 [(17)-1]
Control value (%) [1]: 100%
Control value (%) (late blight on tomato): 100%

CCCC(=O)Nc1nc(CON=C(c2ccc(Cl)cc2)n2nnnc2C)cs1 [(18)-1]
Control value (%) [1]: 100%
Control value (%) (late blight on tomato): 100%

Cc1nnnn1C(=NOCc1cccc(NC(=O)OC(C)(C)C)n1)c1cccc(F)c1 [(19)-1]
Control value (%) [1]: 100%
Control value (%) (late blight on tomato): 100%

CCCCOC(=O)Nc1cccc(CON=C(c2cccc(F)c2)n2nnnc2C)n1 [(19)-11]
Control value (%) [1]: 80%
Control value (%) (late blight on tomato): 90%

CCCCOC(=O)Nc1cccc(CON=C(c2ccc(F)cc2)n2nnnc2C)n1 [(19)-12]
Control value (%) [1]: 90%
Control value (%) (late blight on tomato): 100%

CCCCOC(=O)Nc1cccc(CON=C(c2cccc(Cl)c2)n2nnnc2C)n1 [(19)-13]
Control value (%) [1]: 100%
Control value (%) (late blight on tomato): 100%
